From US6906072B1, “Piperazine compound and pharmaceutical composition containing the compound” (Eisai Co., Ltd., priority 2000, dated 2005)
Where a name gives a salt, the structure may show the parent alone.

Key:
[1] = test system: rat middle cerebral artery emphraxis model; assay: Shrinking effect of infarction nidus in rat middle cerebral artery emphraxis model; format: in vivo; conditions: for volume of the infarction nidus of cerebral cortex: average value±standard error, after 24 hours; for reduction of the volume of the infarction nidus of cerebral cortex: from 30 minutes after emphraxis, vs control group, measured after 24 hours
From the text: Shrinking Effect of Infarction nidus in rat Middle Cerebral Artery Emphraxis Model (I)
A calcium ion in the cell plays an important role in the expression of various cell functions. But when the calcium ion concentration in the cell rises excessively, cell affection is induced (refer to literatures 1) and 2), hereinafter, the same as this.). For example, neural cell affection induced by excitatory amino-acid occurring in the case of cerebral ischemia provokes excessive rise of the calcium ion concentration in the cell (3) and 4)). The maintenance mechanism of membrane potential fails by excitatory amino-acid which rose in the case of local cerebral ischemia (3)), the depolarization of membrane is induced (5)), and the influx of the calcium ion into the cell through the potential dependent calcium channel is increased (6) and 7)). […] The potential dependent calcium channels existing in the neural cell are classified in 6 kinds of sub-types based on the electro-physiological and pharmacological investigation (T, L, N, P, Q and R types) (9)). Among these, N, P and Q types play an important role in the liberation of glutamic acid from rat cerebral cortex synaptosome (10) and 11)).
The compound represented by the above formula (I) according to the present invention was dissolved in a physiological saline, and appropriately prepared so as to be in doses of 1.5, 5 and 15 mg/kg/h. The concentration of the specimen was calculated based on the average body weight of an animal. Further, the average body weight was calculated by measuring the body weight of all animals which are intended to be used for experiment. For example, in the case of 5 mg/kg/h, it was calculated as: concentration of specimen=5 mg×average body weight (kg)/administration volume (0.616 ml) per hour. • (2) Manufacture of nylon embolus
The embolus made from nylon stitch (Ethicon, Inc., Somerville, N.J., USA) of 4-0 monofilament was used for emphraxis of middle cerebral artery. As the nylon embolus, that prepared by previously rounding its tip with flame, fragmenting it in a length of 25 mm, and marking at a position of 17 mm from the tip with an oily felt pen was used. • (3) Implantation of catheter for intravenous administration
The implantation of catheter for intravenous administration (Atom Vein Catheter 3Fr, manufactured by ATOM MEDICAL Co., Ltd., Tokyo) was carried out under 70% laughing gas-2% halothane anaesthesia. Catheter which was filled up with a physiological saline solution was inserted from the femoral vein of left foot. • (4) Emphraxis of middle cerebral artery
The emphraxis of middle cerebral artery was carried out in accordance with the method of Longa et al (12)). The operation was carried out under 70% laughing gas-2% halothane anaesthesia just after implanting the catheter. A rat was laid in facing upward under the stereoscopic microscope for operation, the neck was cut open, and the portion where the whole carotid arteries of the right side are diverged to the external carotid artery and the internal carotid artery was confirmed. The external carotid artery was cut off at the periphery side, and the nylon embolus was inserted from the terminal of the external carotid artery which was cut off into the internal carotid artery. The embolus was inserted up to the position where the position of 17 mm from the tip of the embolus is duplicated with a branch point of the external carotid artery and the internal carotid artery, and was fixed.
The rat was caught and lifted with the cauda after 30 minutes from the emphraxis of middle cerebral artery, an indivisual which expresses clearly the one side paralysis of a fore-leg (the paralysis of a fore-leg of the opponent side which loaded infarct) was provided for experiment as an example in which middle cerebral artery was occluded and was able to make an ischemia condition. • (6) Administration of medium and specimen […]

[2] = test system: rat local cerebral ischemia model; conditions: literature reports, result in words; cited from earlier work
[3] = test system: T1, potential dependent calcium channel; conditions: 1 μM; cited from earlier work
T1 construct: other: 1 μM

[4] = test system: formalin test using mouse; assay: Analgesic effect in formalin test using mouse; format: in vivo; conditions: licking time for 5 minutes
Procedure: Analgesic Effect (I) in Formalin Test Using Mouse
Therefore, the analgesic effect obtained in the case where the intravenous administration of the present compound was carried out was studied in the formalin test (3)) using a mouse.
Ddy mice (male, 4 to 7 weeks age) purchased from Japan SLC Co, were used for experiment. Preliminary feeding of 4 days or more was carried out for mice (breeding condition: a room temperature 23±1° C., air humidity 55±5%, lighting cycle of every 12 hours). The mice were accommodated by a group of approximately 20 in a cage made of polycarbonate for 20 mice in which floor cloth (White Flake, Charles River Co., Ltd., Tokyo) was spread, and were bred. At the morning of the day tested, they were moved to a laboratory. They were freely fed MF (Oriental Yeast Co., Tokyo) as a feed. Further, they drunk city water freely. […]
10 mg/kg of the present compound was intravenously administered via tail vein, 30 mg/kg of morphine was orally administered and 10 mg/kg of indomethacin was orally administered. […] Just after the administration of formalin, the licking time of an action in which a mouse licked his left hind leg was measured for 5 minutes, and it was made as an index of pain. […] Setting the licking time of the control as 100%, the suppression rate (%) of the present compound was calculated by the following calculation formula. […]

formalin test = conditions: administration in spinal cord, literature reports, result in words; cited from earlier work
[5] = test system: potential dependent calcium channel; assay: Measurement of potential dependent calcium channel activity using fluorescent dye (fura2) in cerebral cortex synaptosome stimulated with KCl; format: cell-based, rat

## CC(C)C(C#N)(CCCN1CCN(CCOc2cccc(C#N)c2)CC1)c1ccc(C#N)s1 (centres unmarked) [Example 70]
[1]; 1.5 mg/kg/h intravenous
  volume of the infarction nidus of cerebral cortex: 128.9±12.5 mm^3
  reduction of the volume of the infarction nidus of cerebral cortex: 4%
[1]; 5 mg/kg/h intravenous
  volume of the infarction nidus of cerebral cortex: 108.0±14.9 mm^3
  reduction of the volume of the infarction nidus of cerebral cortex: 20%
[1]; 15 mg/kg/h intravenous
  volume of the infarction nidus of cerebral cortex: 75.7±11.2 mm^3
  reduction of the volume of the infarction nidus of cerebral cortex: 44%

## ω-agatoxin IVA
[2]
  protection of neural cells in rat local cerebral ischemia model: exhibited a protective action for neural cell

## CC(C)C(C#N)(CCCN1CCN(CCOc2cccc(C#N)c2)CC1)c1cccs1 (centres unmarked) [Example 75]
[1]; 1.5 mg/kg/h intravenous
  volume of the infarction nidus of cerebral cortex: 119.9±12.6 mm^3
  reduction of the volume of the infarction nidus of cerebral cortex: 26%
[1]; 5 mg/kg/h intravenous
  volume of the infarction nidus of cerebral cortex: 102.0±14.1 mm^3
  reduction of the volume of the infarction nidus of cerebral cortex: 37%
[1]; 15 mg/kg/h intravenous
  volume of the infarction nidus of cerebral cortex: 83.7±21.3 mm^3
  reduction of the volume of the infarction nidus of cerebral cortex: 49%

## n-conotoxin GVIA
[3]
  inhibition against the Ca2+ influx: 18%

## CC(C)N(CCN1CCN(CCCC(C#N)(c2cccs2)C(C)C)CC1)c1ccccn1 (centres unmarked) [Example 189, 1-[4-cyano-4-(2-thienyl)-5-methylhexyl]-4-[2-{N-isopropyl-N-(2-pyridyl)amino]ethyl}Piperazine]
[4]; 10 mg/kg intravenously, formalin 5 minutes after administration
  suppression rate of licking time: 59%

## CSCC[C@@H]1NC(=O)[C@H](CC(C)C)NC(=O)[C@H](CCCNC(=N)N)NC(=O)[C@H](CO)NC(=O)[C@@H]2CSSC[C@@H]3NC(=O)[C@H](CO)NC(=O)CNC(=O)[C@H]([C@@H](C)O)NC(=O)[C@H](CSSC[C@H](N)C(=O)N[C@@H](CCCCN)C(=O)NCC(=O)N[C@@H](CCCCN)C(=O)NCC(=O)N[C@@H](C)C(=O)N[C@@H](CCCCN)C(=O)N2)NC(=O)[C@H](CSSC[C@@H](C(N)=O)NC(=O)[C@H](CCCCN)NC(=O)CNC(=O)[C@H](CO)NC(=O)[C@H](CCCNC(=N)N)NC3=O)NC(=O)[C@H](CC(=O)O)NC(=O)[C@H](Cc2ccc(O)cc2)NC1=O [SNX-111]
Formalin test
  analgesic action in the formalin test: exhibits an analgesic action
[2]
  protection of neural cells in rat local cerebral ischemia model: protected the liberation of glutamic acid from cerebral cortex and subsequent neural cell affection

## CN1CC[C@]23c4c5ccc(O)c4O[C@H]2[C@@H](O)C=C[C@H]3[C@H]1C5 [morphine, reference compound]
[4]; 30 mg/kg orally, formalin 30 minutes after administration
  suppression rate of licking time: 54%

## COc1ccc(CCN(C)CCCC(C#N)(c2ccc(OC)c(OC)c2)C(C)C)cc1OC (centres unmarked) [Control, verapamil hydrochloride]
[5]
  IC50: > 16 µM

## w-Agatoxin-IVA
[3]
  inhibition against the Ca2+ influx: 64%
